From PubChem BioAssay (NCI) come the findings set out here.

Holding throughout (assay): NCI anticancer screen, dose series, 48 h
Assay [1] relates to OVCAR-8 ovarian.
The subject of assay [2] is MCF7 breast.
Assay [3] has as its system HL-60(TB) leukemia.
For assay [4], the system named is OVCAR-3 ovarian.
The subject of assay [5] is SK-MEL-5 melanoma.
Assay [6] concerns MALME-3M melanoma.
Assay [7] deals with HOP-62 NSCLC.
The subject of assay [8] is COLO 205 colon.
The subject of assay [9] is UACC-257 melanoma.
Assay [10] relates to UACC-62 melanoma.

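Five compound concentrations were applied to cells in 96-well plates for 48 hours; endpoints were derived by simple linear interpolation of the resulting dose-response curve. Abbreviation: GI50, concentration required for 50% inhibition of growth. TGI: concentration producing complete growth inhibition.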

In the case of `CS[C@@]1(C(=O)Nc2ccc3[nH]nc(-c4ccc(OC(C)C)nc4)c3c2)CCN(CC(=O)N2CC=C(c3ccc(-c4ncn(C)n4)cc3)CC2)C1`, the GI50 was 9.31 µM in assay [1]; 13.9 µM in assay [2]; 0.0551 µM in assay [3]; more than 100 µM in [4]; 1.03 µM in assay [5]; 0.0155 µM in assay [6]. Besides, the GI50 is 0.378 µM in assay [7] and 0.0178 µM in [8]. Also, the TGI was more than 100 µM in assay [1]; more than 100 µM in assay [2]; more than 100 µM in [3]; more than 100 µM in assay [4]; more than 89.9 µM in assay [5]; 0.105 µM in assay [6]. For the same molecule, the TGI in [7] and in [8] was more than 100 µM throughout.
Regarding `C=C(C)[C@@H]1CC[C@]2(C)[C@H](C=CC3=C4C[C@@](C)(CO)CC[C@]4(C)CC[C@]32C)[C@@]1(C)CCCN`, the GI50 in assay [9] was 1.87 µM; in assay [1], 2.13 µM; in assay [2] it was 1.6 µM; in assay [10], 1.78 µM; in [4], 1.48 µM; in assay [6] it was 1.46 µM. For the same molecule, the GI50 in [8] was 1.49 µM. Besides, the TGI stood at 3.66 µM in assay [9]; 4.61 µM in [1]; 3.4 µM in assay [2]; 3.17 µM in [10]; 2.85 µM in assay [4]; 2.91 µM in assay [6]. Also, the TGI in [8] is 3.23 µM.
Take `O=P1(O)c2ccccc2CS(=O)(=O)Cc2ccccc21`: the TGI in assay [9], in assay [1], in [2], in assay [3], in assay [10] and in [4] was more than 100 µM throughout. In addition, the TGI in assay [5], in assay [7] and in assay [8] was more than 100 µM each time.
In the case of `OC(c1ccccc1)c1c(-c2ccccc2)oc(-c2ccccc2)c1C(O)c1ccccc1` (stereo unspecified), the TGI in assay [2] was determined as 16.6 µM; in assay [3] it was 6.13 µM; in [10], 25.6 µM; in [4], 18.7 µM; in assay [5], 23.6 µM; in assay [6], 25.4 µM. For the same molecule, the TGI in [7] amounted to 27.9 µM; in assay [8], 19.4 µM.
In the case of `N#CC(C#N)=Cc1ccc(-c2ccc(-c3nc4ccccc4o3)cc2)o1`, the GI50 was more than 100 µM in assay [9]; 29.9 µM in [1]; 7.99 µM in [2]; 42.4 µM in assay [10]; 66.7 µM in assay [4]; 13.1 µM in assay [5]. Further, the GI50 in [6] was 41.9 µM; in [7] it was 21.6 µM; in assay [8], 40 µM. Further, the TGI was more than 100 µM in assay [9]; more than 100 µM in assay [1]; more than 100 µM in assay [2]; more than 100 µM in assay [10]; more than 100 µM in assay [4]; 62.5 µM in assay [5]. Moreover, the TGI in assay [6] is more than 100 µM; in assay [7], 51.9 µM; in [8], more than 100 µM.
As for `Cc1sc(/N=C2/NC(=O)CS2)nc1-c1nc(/N=C2/NC(=O)CS2)sc1C`, the GI50 was more than 50 µM in assay [9]; more than 50 µM in assay [1]; 19.7 µM in assay [2]; more than 50 µM in assay [3]; 15.9 µM in [10]; more than 50 µM in [4]. For the same molecule, the GI50 is 31.2 µM in assay [5], 35.2 µM in assay [7] and more than 50 µM in assay [8]. In addition, the TGI in [9], in [1], in assay [2], in assay [3], in assay [10] and in assay [4] was more than 50 µM throughout. The TGI in [5], in assay [7] and in [8] was more than 50 µM each time.
As to `C=C1CO[C@@H]2C[C@@H]1CC/C(C)=C/CC/C(C)=C/CC[C@@]2(C)O`, the GI50 in assay [9] was 16.8 µM; in assay [1], 20.9 µM; in assay [2] it was 25.4 µM; in assay [3], 1.17 µM; in assay [10], 18.4 µM; in assay [4], 24.1 µM. The GI50 in assay [5] was 18.5 µM; in assay [7], 17.1 µM; in [8], 27.3 µM. Moreover, the TGI in assay [9] is 39.1 µM; in assay [1] it was 44.8 µM; in [2] it was more than 63.6 µM; in assay [3], 11.2 µM; in assay [10] it was 35.1 µM; in [4], 51.6 µM. Moreover, the TGI was 34.5 µM in [5], 32.5 µM in [7] and more than 60.9 µM in assay [8].
Consider `COc1cccc(Nc2nccc(Nc3ccc4[nH]ncc4c3)n2)c1`, for which the GI50 is 2.04 µM in assay [9]; 1.67 µM in assay [1]; 1.26 µM in assay [2]; 1.53 µM in [3]; 1.58 µM in [4]; 1.22 µM in assay [5]. The GI50 in [7] was 1.71 µM; in [8], 1.57 µM. Further, the TGI in assay [9] was 3.72 µM; in assay [1], 4.39 µM; in [2], 3.11 µM; in assay [3], 3.56 µM; in [4], 4.07 µM; in assay [5], 2.47 µM. In addition, the TGI in assay [7] amounted to 3.78 µM; in assay [8], 3.26 µM.
Take `CCOC(=O)CNC(=O)C(CSC(=O)N(C)O)NC(=O)CCC(N)C(=O)O` (stereo unspecified): the GI50 in [9], in assay [1], in assay [3], in assay [10], in [4] and in assay [5] was more than 2000 µM in each case. Besides, the GI50 in [6], in [7] and in [8] was more than 2000 µM each time. The TGI in assay [9], in assay [1], in [3], in assay [10], in assay [4] and in [5] was more than 2000 µM each time. Moreover, the TGI in assay [6] and in assay [7] was more than 2000 µM throughout.
As to `O=C1c2ccccc2C(=O)c2c(NC(=O)c3ccc4c5c(ncnc35)-c3ccccc3C4=O)cccc21`, the TGI in assay [9], in assay [1], in assay [2], in assay [10], in [4] and in assay [5] was more than 100 µM each time. Also, the TGI was more than 100 µM in [6], 42.7 µM in [7] and more than 100 µM in assay [8].
Take `CCNCCNc1cc(-c2cccc(C(F)(F)F)c2)c(C#N)c2nc3ccccc3n12`: the GI50 is 1.81 µM in assay [9]; 1.69 µM in assay [1]; 2.23 µM in assay [3]; 1.69 µM in [10]; 1.26 µM in [4]; 1.76 µM in [5]. Further, the GI50 in assay [6] is 1.64 µM; in assay [7], 2.13 µM; in assay [8], 0.557 µM. Besides, the TGI in assay [9] amounted to 3.26 µM; in [1], 3.23 µM; in assay [3], 4.21 µM; in [10], 3.2 µM; in [4] it was 2.62 µM; in assay [5], 3.16 µM. The TGI came to 3.29 µM in assay [6], 3.8 µM in assay [7] and 1.99 µM in assay [8].
On to `CCCCCc1c(C)[nH]c(/C=c2\[nH]/c(=C3/C=c4ccccc4=N3)cc2OC)c1C`, for which the GI50 was 0.394 µM in assay [9]; 0.297 µM in assay [1]; 0.0425 µM in assay [2]; 0.124 µM in assay [3]; 0.0624 µM in assay [10]; 0.109 µM in [4]. The GI50 in assay [5] is 0.0324 µM; in assay [7], 0.0767 µM; in assay [8], 0.0568 µM. The TGI in assay [9] is 1.73 µM; in [1] it was 1.67 µM; in [2] it was 1.43 µM; in assay [3] it was 3.63 µM; in [10], 0.355 µM; in assay [4] it was 0.699 µM. The results for the TGI in [5], in [7] and in assay [8] were 0.11 µM, 0.438 µM and 0.494 µM, respectively.
As to `CC12OC3CC(O1)C1(C=O)C4CCC5(C)C(c6ccc(=O)oc6)CCC5(O)C4CCC1(C3)O2` (stereo unspecified), the TGI was found to be 0.774 µM in assay [9]; 1.2 µM in assay [1]; 0.474 µM in assay [3]; 0.781 µM in assay [10]; 0.384 µM in assay [4]; 0.328 µM in assay [5]. Besides, the figures for the TGI in assay [6], in assay [7] and in assay [8] were 0.51 µM, 0.348 µM and 1.69 µM, respectively.
For the molecule `N#CC12Cc3ccc4c(c3-c3cccc(c31)CCN2C(=O)c1ccccc1)OCO4` (stereo unspecified), the TGI in assay [9], in [1], in assay [3], in assay [10], in assay [4] and in assay [5] was more than 100 µM each time. The TGI in [6], in assay [7] and in assay [8] was more than 100 µM throughout.
For `CC1=NN(c2ccccc2)C(=O)C1N=Nc1ccc(Br)c(C)c1` (stereo unspecified), the TGI in [9], in assay [1], in assay [3], in assay [10], in assay [4] and in assay [5] was more than 100 µM each time. For the same molecule, the TGI in [6], in assay [7] and in assay [8] was more than 100 µM in each case.
